Among the data in ChEMBL document CHEMBL4725287, “An in silico mechanistic insight into HDAC8 activation facilitates the discovery of new small-molecule activators” (Bioorg Med Chem, 2020) are EC50 and fold change (FC) values, retold here.

One experiment addresses T1, Histone deacetylase 8 (Homo sapiens, UniProt Q9BY41).
T1 sequence (Q9BY41 whole entry): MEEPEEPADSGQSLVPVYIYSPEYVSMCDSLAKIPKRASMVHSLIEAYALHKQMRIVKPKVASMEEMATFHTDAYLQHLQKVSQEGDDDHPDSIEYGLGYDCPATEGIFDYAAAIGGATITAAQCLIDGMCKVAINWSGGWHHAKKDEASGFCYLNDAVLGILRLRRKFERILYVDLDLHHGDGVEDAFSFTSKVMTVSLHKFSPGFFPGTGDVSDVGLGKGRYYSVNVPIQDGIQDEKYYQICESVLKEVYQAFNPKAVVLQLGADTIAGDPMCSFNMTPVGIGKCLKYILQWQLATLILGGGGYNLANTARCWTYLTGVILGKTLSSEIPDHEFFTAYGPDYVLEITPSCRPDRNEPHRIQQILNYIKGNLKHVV
Put plainly: Substrate-dependent activation of HDAC8 (unknown origin) using FLUOR DE LYS as substrate incubated for 30 mins by fluorescence based assay.

Experiment [1] concerns the target T2, Histone deacetylase 8 (Homo sapiens) (UniProt Q9BY41).
T2 sequence (whole entry): T1 sequence (Q9BY41 whole entry)
Briefly: Substrate-dependent activation of HDAC8 (unknown origin) assessed as fold activation using FLUOR DE LYS as substrate at 20 uM incubated for 30 mins by fluorescence based assay relative to control. As to conditions: filed as activator.

Consider `Oc1cccc2cccnc12` [OXYQUINOLINE], for which the EC50 at Histone deacetylase 8 is 11.1 µM. In addition, the fold change (FC) in experiment [1] was 1.3.
For `Oc1ccccc1-c1nc2ccccc2s1`, the fold change (FC) in experiment [1] was 1.3.
For the compound `O=C(O)c1ccccc1S` [THIOSALICYLIC ACID], the EC50 on Histone deacetylase 8 is 16.9 µM. In experiment [1], the fold change (FC) amounted to 1.3.
In the case of `Nc1ncccc1O`, the fold change (FC) in experiment [1] is 1.3.
Still for that read-out and setting: to `O=C(O)c1cccnc1S` belongs 1.3.
In the case of `Sc1nc2ccccc2o1`, in experiment [1], the fold change (FC) came out at 1.3.
